Reference: patent EP4818177A1, “TRICYCLIC DERIVATIVE INHIBITOR, AND PREPARATION METHOD AND USE THEREFOR” (Shanghai Hansoh Biomedical Co., Ltd., priority 2023, dated 2025)

Key:
[1] = biological target: T1, PRMT5/MEP50-MTA protein complex (Homo sapiens, UniProt O14744); experiment: Thermal shift assay: change in melting temperature of the PRMT5/MEP50-MTA protein complex; type: binding; conditions: compound 8 µM, PRMT5/MEP50 2 µM, MTA 2 µM; Tm minus DMSO vehicle control
T1 construct: purchased Viva Biotech
T1 sequence (O14744 whole entry): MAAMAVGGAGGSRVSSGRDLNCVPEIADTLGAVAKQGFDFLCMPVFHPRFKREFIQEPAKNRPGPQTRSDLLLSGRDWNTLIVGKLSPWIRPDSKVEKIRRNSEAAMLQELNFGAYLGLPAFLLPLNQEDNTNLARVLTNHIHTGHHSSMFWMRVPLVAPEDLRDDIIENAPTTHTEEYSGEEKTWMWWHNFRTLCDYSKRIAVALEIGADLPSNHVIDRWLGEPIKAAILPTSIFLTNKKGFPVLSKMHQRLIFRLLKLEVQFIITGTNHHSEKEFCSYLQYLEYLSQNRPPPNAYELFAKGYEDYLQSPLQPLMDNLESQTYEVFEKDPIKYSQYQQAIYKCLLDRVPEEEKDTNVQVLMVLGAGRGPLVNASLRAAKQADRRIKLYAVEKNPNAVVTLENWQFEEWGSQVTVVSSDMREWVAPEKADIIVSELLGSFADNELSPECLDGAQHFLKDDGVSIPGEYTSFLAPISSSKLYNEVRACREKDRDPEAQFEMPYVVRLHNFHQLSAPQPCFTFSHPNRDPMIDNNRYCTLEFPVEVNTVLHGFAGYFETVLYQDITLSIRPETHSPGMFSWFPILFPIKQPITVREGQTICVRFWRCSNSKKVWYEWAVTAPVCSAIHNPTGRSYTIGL
T1 sequence (Q9BQA1 whole entry partner): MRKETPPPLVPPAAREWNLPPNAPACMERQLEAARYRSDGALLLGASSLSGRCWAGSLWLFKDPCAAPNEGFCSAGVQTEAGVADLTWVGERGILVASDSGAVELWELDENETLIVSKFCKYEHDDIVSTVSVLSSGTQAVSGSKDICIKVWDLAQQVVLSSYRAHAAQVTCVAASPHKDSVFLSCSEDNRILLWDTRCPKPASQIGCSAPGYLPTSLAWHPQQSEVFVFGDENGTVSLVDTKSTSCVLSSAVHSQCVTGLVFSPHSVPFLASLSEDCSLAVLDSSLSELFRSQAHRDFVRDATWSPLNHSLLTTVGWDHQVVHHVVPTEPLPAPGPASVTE
Excerpt: Test Example 1: Determination of the ability of the compounds of the present invention to improve the thermal stability (melting temperature) of the PRMT5/MEP50-MTA protein complex.
1. Experimental objective: The objective of this test example is to determine the ability of the compound to improve the thermal stability of the PRMT5/MEP50-MTA protein complex, resulting in an increase in the protein melting temperature. 2. Experimental instruments: Quantitative PCR instrument (Quantstudio6 Flex) was purchased from Life Technologies; pipettes were purchased from Eppendorf or Rainin. 3. Experimental reagents and consumables: PRMT5/MEP50 protein was prepared by Viva Biotech; HEPES was purchased from Thermo Fisher Scientific (Cat. No. 15630080); DTT was purchased from Sigma (Cat. No. 43816-10ml); sodium chloride was purchased from Invitrogen (Cat. No. AM9760G); Protein Thermal Shift™ Dye Kit was purchased from Thermo Fisher Scientific (Cat. No. 4461146); methylthioadenosine (MTA) was purchased from Sigma (Cat. No. D5011). 4. Experimental methods: In this experiment, the thermal shift method was used to measure the change in the melting temperature (Tm) of the PRMT5/MEP50-MTA protein complex before and after compound binding, thereby characterising the ability of the compound to improve the thermal stability of the PRMT5/MEP50-MTA protein complex. A solution containing 50 mM HEPES, 10 mM DTT, 2 µM MTA, SYPRO Orange and 250 mM NaCl was prepared as the experimental buffer. Human PRMT5/MEP50 protein was added to a final concentration of 2 µM, and the mixture was incubated at room temperature for 30 minutes. The above reaction mixture was aliquoted into 8-strip PCR tubes at 19.5 µL per tube. Then 0.5 µL of test compound or DMSO was added to each tube, providing a total reaction volume of 20 µL and a final compound concentration of 8 µM. 2.5% DMSO was set as the vehicle control. After incubation at room temperature for 10 minutes, the PCR tubes were placed in a PCR instrument, and the melt curve function was selected to measure the melting temperature of the PRMT5/MEP50-MTA protein complex in different treatment groups (heated from 25°C to 95°C, 0.03°C/s). 5. Experimental data processing method: The experimental data files from the PCR instrument were imported into the thermal shift software to obtain the melting temperature (Tm) for each treatment group.

[2] = system: HCT116 wild-type cells; experiment: Cell proliferation inhibition (CellTiter-Glo), wild-type cells; type: cell-based; conditions: Homo sapiens, HCT-116, HCT116 wild-type cells, 72-240 hours incubation
Excerpt: (§1) Test Example 2: Determination of the inhibitory effect of the compounds of the present invention on the proliferation activity of HCT116 and MTAP Knockout HCT116 cells.
(§2) 1. Experimental objective: to determine the inhibitory effect of the compound on the proliferation activity of HCT116 wild-type and HCT116 MTAP knockout cells. 2. Experimental instruments: Centrifuge (Eppendorf 5810R); microplate reader (BioTek Synergy H1 or PerkinElmer Envision); pipette (Eppendorf or Rainin). 3. Experimental reagents: HCT116 and MTAP Knockout HCT116 cells were purchased from Nanjing Cobioer; Cell Titer-Glo was purchased from Promega (Cat. No. G7573); McCoy' 5A was purchased from Gibco (Cat. No. 12330031); FBS was purchased from Gibco (Cat. No. 10091148); PBS was purchased from Gibco (Cat. No. 10010023); trypsin was purchased from Gibco (Cat. No. 25200056); cell culture plates were purchased from Corning (Cat. No. 3610). 4. Experimental methods: HCT116 and MTAP Knockout HCT116 cells were cultured in McCoy'5A medium containing 10% FBS until an appropriate cell density was reached. The cells were then collected and adjusted to a suitable concentration using complete medium. The cell suspension was seeded into a 96-well plate at 90 µL per well and allowed to adhere overnight in a 37°C, 5% CO2 incubator. Compound solutions of various concentrations were prepared using DMSO and culture medium, with a vehicle control set. The compound solutions were added to the 96-well plate at 10 µL per well, and the plate was incubated in a 37°C, 5% CO2 incubator for an additional 72-240 hours. After incubation, CellTiter-Glo solution was added, and the mixture was mixed uniformly by shaking, followed by incubation in the dark for 10 to 30 minutes. Luminescence was measured using a Synergy H1 or Envision microplate reader. 5. Experimental data processing method: The inhibition rate was calculated using the luminescence signal values, and the concentrations along with the inhibition rates were subjected to non-linear regression curve fitting using Graphpad Prism software to obtain the IC50 values.

[3] = system: MTAP Knockout HCT116 cells; experiment: Cell proliferation inhibition (CellTiter-Glo), MTAP knockout cells; type: cell-based; conditions: for Selectivity: HCT116 versus MTAP Knockout HCT116; for IC50: Homo sapiens, HCT-116, MTAP Knockout HCT116 cells, 72-240 hours incubation, CellTiter-Glo
Excerpt: as §1, §2

[4] = Pharmacokinetics in rats (plasma) after oral administration; conditions: male, SD, rat, 5 mg/kg

SMILES	ΔTm at 8 µM [1]	IC50 [2]	Selectivity [3]	IC50 [3]	AUC(0-inf) [4]	Cmax [4]	MRT inf [4]	Tmax [4]	half-life [4]
CNN(C(=O)c1cc2c(cn1)nc(N)c1cnn(C)c12)[C@@H]1COc2cc(S(F)(F)(F)(F)F)ccc21 (single isomer, unassigned) [Example 375-P1]	13 °C	133 nM	17	7.9 nM	2130 ng·h/mL	287 ng/mL	5 h	1.3 h	3.3 h
[2H]C([2H])([2H])NN(C(=O)c1cc2c3c(c(N)nc2cn1)COC3)[C@H]1COCc2c1ccn1c(C(F)(F)F)cnc21 (stereo in doubt) [Example 371-P1, (R)-4-amino-N'-(methyl-d3)-N-(3-(trifluoromethyl)-7,10-dihydro-8H-imidazo[1,2-a]pyrano[3,4-c]pyridin-7-yl)-1,3-dihydrofuro[3,4-c][1,7]naphthyridine-8-carbohydrazide]	11.6 °C	1040 nM	121	8.5 nM	4800 ng·h/mL	1600 ng/mL	2.5 h	0.8 h	1.6 h
CCNN(C(=O)c1cc2c(cc1C)nc(N)c1cncn12)C1COCc2nc(C(F)(F)F)ccc21 (stereo not shown) [Example 277, 4-Amino-N'-ethyl-7-methyl-N-(2-(trifluoromethyl)-5,8-dihydro-6H-pyrano[3,4-b]pyridin-5-yl)imidazo[1,5-a]quinoxaline-8-carbohydrazide]	12.9 °C	207 nM	17	12 nM					
CNN(C(=O)c1cc2c(cc1F)nc(N)c1cncn12)C1COCc2c1ccn1c(C(F)(F)F)cnc21 (stereo not shown) [Example 282, 4-Amino-7-fluoro-N'-methyl-N-(3-(trifluoromethyl)-7,10-dihydro-8H-imidazo[1,2-a]pyrano[3,4-c]pyridin-7-yl)imidazo[1,5-a]quinoxaline-8-carbohydrazide]	12.3 °C	2450 nM	145	17 nM					
CNN(C(=O)c1cc2c3c(c(N)nc2cn1)COC3)[C@@H]1COCc2c1ccn1c(C(F)(F)F)cnc21 [Example 285, 4-Amino-N'-methyl-N-(3-(trifluoromethyl)-7,10-dihydro-8H-imidazo[1,2-a]pyrano[3,4-c]pyridin-7-yl)-1,3-dihydrofuro[3,4-c][1,7]diazanaphthalene-8-carbohydrazide]	11.6 °C	1150 nM	120	10 nM	4980 ng·h/mL	999 ng/mL	4.8 h	0.8 h	4.2 h
CNN(C(=O)c1cc2c3c(c(N)nc2cc1C)COC3)C1COCc2nc(C(F)(F)F)ccc21 (stereo not shown) [Example 307, 4-Amino-7-methyl-N'-methyl-N-(2-trifluoromethyl-5,8-dihydro-6H-pyrano[3,4-b]pyridin-5-yl)-1,3-dihydrofuro[3,4-c]quinoline-8-carbohydrazide]	12.7 °C	1060 nM	73	15 nM					
[2H]C([2H])([2H])NN(C(=O)c1ccc2nc(N)c3cnn(C)c3c2c1)[C@@H]1COCc2nc(C(F)(F)F)ccc21 [Example 317]	11.6 °C	508 nM	130	3.9 nM	739 ng·h/mL	240 ng/mL	2.8 h	1 h	1.9 h
[2H]C([2H])([2H])NN(C(=O)c1ccc2nc(N)c3cnn(C)c3c2c1)C1([2H])COCc2nc(C(F)(F)F)ccc21 (stereo not shown) [Example 324, 4-Amino-N-[5-deuterio-2-(trifluoromethyl)-6,8-dihydropyrano[3,4-b]pyridin-5-yl]-1-methyl-N'-(trideuteriomethyl)pyrazolo[4,3-c]quinoline-8-hydrazide]	11.1 °C	2380 nM	155	15 nM					
[2H]C([2H])([2H])NN(C(=O)c1cc2c3c(c(N)nc2cn1)COC3)[C@@]1([2H])COCc2c1ccn1c(C(F)(F)F)cnc21 [Example 354-P1, (R)-4-amino-N'-(methyl-d3)-N-(3-(trifluoromethyl)-7,10-dihydro-8H-imidazo[1,2-a]pyrano[3,4-c]pyridin-7-yl-7-d)-1,3-dihydrofuro[3,4-c][1,7]naphthyridine-8-carbohydrazide]	11.6 °C	2470 nM	107	23 nM					
[2H]C([2H])([2H])NN(C(=O)c1cc2c3c(c(N)nc2cc1C)COC3)C1COCc2c1ccn1c(C(F)(F)F)cnc21 (stereo not shown) [Example 357, 4-Amino-7-methyl-N'-methyl-d3-N-(3-trifluoromethyl-7,10-dihydro-8H-imidazo[1,2-a]pyrano[3,4-c]pyridin-7-yl)-1,3-dihydrofuro[3,4-c]quinoline-8-carbohydrazide]	12.2 °C	760 nM	100	7.6 nM	1080 ng·h/mL	360 ng/mL	2.2 h	0.7 h	1.2 h
[2H]C([2H])([2H])NN(C(=O)c1ccc2nc(N)c3cnn(C)c3c2c1)C1COCc2c1ccn1c(C(F)(F)F)cnc21 (stereo not shown) [Example 436]	11.5 °C	1640 nM	185	8.9 nM	2030 ng·h/mL	143 ng/mL	14.9 h	3.3 h	10.8 h
CNN(C(=O)c1ccc2nc(N)c3cnn(C)c3c2c1)C1COCc2nc(S(F)(F)(F)(F)F)ccc21 (stereo not shown) [Example 448]	12.3 °C	344 nM	44	7.8 nM					
CNN(C(=O)c1cc2c(cc1C)nc(N)c1cnn(C)c12)C1COc2cc(S(F)(F)(F)(F)F)ccc21 (stereo not shown) [Example 451, 4-Amino-N',1,7-trimethyl-N-(6-(pentafluorosulphanyl)-2,3-dihydrobenzofuran-3-yl)-1H-pyrazolo[4,3-c]quinoline-8carbohydrazide]	13.7 °C	89 nM	21	4.2 nM					
